Measurements published in patent US12268682B2, “Anticancer drug FL118 formulation for treatment of human cancer” (CANGET BIOTEKPHARMA, LLC, priority 2019, dated 2025).

Assays:
[1] = tested on: pro-apoptotic signaling, cleavage of caspase-3 and PARP; assay: Western blotting of FL118-treated MM cell lines; type: cell-based, human
Protocol: Western blotting: Untreated or FL118 treated (16 h) MM cell lines were washed twice with ice-cold PBS. Cell pellets were then snap-frozen and stored at −80° C. until further use. Pellets were dissolved in Radioimmunoprecipitation (RIPA) lysis buffer, supplemented with protease inhibitor cocktail (Roche) and incubated on ice for 45 minutes. Lysates were centrifuged at 14000 g for 10 minutes at 4° C. and supernatant was collected. Protein concentrations were determined by a DC protein assays (Bio-Rad). Samples were separated on 4-20% Mini-protean TGX precast gels (Bio-Rad) and proteins were transferred to Immobilon-FL PVDF membrane (Merck Millipore). After 1 h blocking with Odyssey Block Buffer (LI-COR) at room temperature, membranes were incubated with primary antibodies over night at 4° C. (anti-Mcl-1, anti-survivin Santa Cruz; anti-XIAP, anti-Bcl-2, anti-PUMA, anti-p21 Waf/Cip1, anti-PARP, anti-caspase-3 Cell Signaling Technology; anti-p53 DAKO; anti-NOXA, anti-Actin Merck Millipore). Blots were visualized by Odyssey infrared imaging (LICOR Biosciences) using IRDye 680 Goat-anti-Rabbit (LI-COR Lincoln) and IRDye 800CW Goat-anti-Mouse IgG (LI-COR Lincoln) according to manufacturer's instructions. Band intensities were quantified using Odyssey software.

[2] = beagle dogs; cited from earlier work

SMILES: CC[C@@]1(O)C(=O)OCc2c1cc1n(c2=O)Cc2cc3cc4c(cc3nc2-1)OCO4 [FL118]
- pro-apoptotic signaling ([1]; high- and intermediate-susceptible MM1.s and U266, 16 hours): promotes pro-apoptotic signaling
- pro-apoptotic signaling ([1]; low-susceptible L363, 16 hours): not
- hematopoietic and biochemical toxicities [2]: very low
